Reference: US9051311B2, “Sulfamide sodium channel inhibitors” (AMGEN INC., priority 2012, dated 2015)
Structures can show the parent of a compound that is named as a salt.

Assays:
[1] = target: T1, Nav 1.7 (Homo sapiens (Human), UniProt Q15858); assay: Nav 1.7 in vitro PatchExpress (PX) assay, whole cell voltage clamp; assay type: cell-based; details: 293 cells stably transfected with human Nav1.7; partially inactivated state (20 to 50% inactivation)
Procedure: Nav 1.7 In Vitro PatchExpress (PX) Assay
293 cells stably transfected with human Nav1.7 were recorded in whole cell voltage clamp mode with the PatchXpress automated electrophysiology system (Molecular Devices, LLC, Sunnyvale, Calif.). Compound effects were measured on a partially inactivated state of the sodium channel. Cells were clamped to a holding potential yielding 20 to 50% inactivation. To elicit sodium current, channels were activated by pulsing to −10 mV for 20 msec. This voltage protocol was repeated at a rate of 0.1 Hz throughout the experiment. A single concentration of test compound was applied to cells for a duration of 3 minutes. Peak sodium current was measured at the end of the compound addition period to determine percent inhibition.

[2] = target: T1, Nav 1.7; assay: Nav 1.7 IonWorks Quattro (IWQ) in vitro assay, population patch-clamp; assay type: cell-based; details: 293 cells stably transfected with Nav 1.7; block at 26th pulse to −20 mV;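 note: cells held at −110 mV for 3 s, then 26 pulses of 150 ms at 5 Hz, leak-corrected peak current, percent block measured before and after compound, 3–8 min exposure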
Procedure: (§1) Nav 1.7 and Nav 1.5 Ion Works Quattro (IWQ) In Vitro Assays
(§2) 293 cells stably transfected with either Nav 1.7 or with Nav 1.5 were recorded in population patch-clamp mode with the IonWorks® Quattro automated electrophysiology system in accordance with the manufacturer's specifications (Molecular Devices, LLC, Sunnyvale, Calif.). Sodium channel currents were measured in response to a train of depolarizations that induced successively greater inactivation.
(§3) Cells were held at −110 mV for three seconds (Nav 1.7) or half a second (Nav 1.5) from a holding voltage of −15 mV, then put through a series of 26 pulses of 150 msec duration to −20 mV at a frequency of 5 Hz. Cells were then left unclamped for a period of 3 to 8 minutes while a single concentration of test compound was added. Cells were then reclamped and put through the same voltage protocol. Current at the end of the 26th pulse to −20 mV was subtracted from the peak current evoked by the 26th pulse to −20 mV to correct for leak current. Percent block was calculated for each concentration in duplicate, and IC50 curves were fitted to percent block as a function of concentration.

[3] = target: Nav 1.5 (Homo sapiens (Human), UniProt Q14524); assay: cell-based;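 note: HEK293 cells stably expressing Nav1.5, sodium current at the 26th of 26 pulses to −20 mV (150 ms, 5 Hz) after compound versus before, leak-corrected, 3–8 min exposure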
Chain of Nav 1.5 (Q14524 whole entry): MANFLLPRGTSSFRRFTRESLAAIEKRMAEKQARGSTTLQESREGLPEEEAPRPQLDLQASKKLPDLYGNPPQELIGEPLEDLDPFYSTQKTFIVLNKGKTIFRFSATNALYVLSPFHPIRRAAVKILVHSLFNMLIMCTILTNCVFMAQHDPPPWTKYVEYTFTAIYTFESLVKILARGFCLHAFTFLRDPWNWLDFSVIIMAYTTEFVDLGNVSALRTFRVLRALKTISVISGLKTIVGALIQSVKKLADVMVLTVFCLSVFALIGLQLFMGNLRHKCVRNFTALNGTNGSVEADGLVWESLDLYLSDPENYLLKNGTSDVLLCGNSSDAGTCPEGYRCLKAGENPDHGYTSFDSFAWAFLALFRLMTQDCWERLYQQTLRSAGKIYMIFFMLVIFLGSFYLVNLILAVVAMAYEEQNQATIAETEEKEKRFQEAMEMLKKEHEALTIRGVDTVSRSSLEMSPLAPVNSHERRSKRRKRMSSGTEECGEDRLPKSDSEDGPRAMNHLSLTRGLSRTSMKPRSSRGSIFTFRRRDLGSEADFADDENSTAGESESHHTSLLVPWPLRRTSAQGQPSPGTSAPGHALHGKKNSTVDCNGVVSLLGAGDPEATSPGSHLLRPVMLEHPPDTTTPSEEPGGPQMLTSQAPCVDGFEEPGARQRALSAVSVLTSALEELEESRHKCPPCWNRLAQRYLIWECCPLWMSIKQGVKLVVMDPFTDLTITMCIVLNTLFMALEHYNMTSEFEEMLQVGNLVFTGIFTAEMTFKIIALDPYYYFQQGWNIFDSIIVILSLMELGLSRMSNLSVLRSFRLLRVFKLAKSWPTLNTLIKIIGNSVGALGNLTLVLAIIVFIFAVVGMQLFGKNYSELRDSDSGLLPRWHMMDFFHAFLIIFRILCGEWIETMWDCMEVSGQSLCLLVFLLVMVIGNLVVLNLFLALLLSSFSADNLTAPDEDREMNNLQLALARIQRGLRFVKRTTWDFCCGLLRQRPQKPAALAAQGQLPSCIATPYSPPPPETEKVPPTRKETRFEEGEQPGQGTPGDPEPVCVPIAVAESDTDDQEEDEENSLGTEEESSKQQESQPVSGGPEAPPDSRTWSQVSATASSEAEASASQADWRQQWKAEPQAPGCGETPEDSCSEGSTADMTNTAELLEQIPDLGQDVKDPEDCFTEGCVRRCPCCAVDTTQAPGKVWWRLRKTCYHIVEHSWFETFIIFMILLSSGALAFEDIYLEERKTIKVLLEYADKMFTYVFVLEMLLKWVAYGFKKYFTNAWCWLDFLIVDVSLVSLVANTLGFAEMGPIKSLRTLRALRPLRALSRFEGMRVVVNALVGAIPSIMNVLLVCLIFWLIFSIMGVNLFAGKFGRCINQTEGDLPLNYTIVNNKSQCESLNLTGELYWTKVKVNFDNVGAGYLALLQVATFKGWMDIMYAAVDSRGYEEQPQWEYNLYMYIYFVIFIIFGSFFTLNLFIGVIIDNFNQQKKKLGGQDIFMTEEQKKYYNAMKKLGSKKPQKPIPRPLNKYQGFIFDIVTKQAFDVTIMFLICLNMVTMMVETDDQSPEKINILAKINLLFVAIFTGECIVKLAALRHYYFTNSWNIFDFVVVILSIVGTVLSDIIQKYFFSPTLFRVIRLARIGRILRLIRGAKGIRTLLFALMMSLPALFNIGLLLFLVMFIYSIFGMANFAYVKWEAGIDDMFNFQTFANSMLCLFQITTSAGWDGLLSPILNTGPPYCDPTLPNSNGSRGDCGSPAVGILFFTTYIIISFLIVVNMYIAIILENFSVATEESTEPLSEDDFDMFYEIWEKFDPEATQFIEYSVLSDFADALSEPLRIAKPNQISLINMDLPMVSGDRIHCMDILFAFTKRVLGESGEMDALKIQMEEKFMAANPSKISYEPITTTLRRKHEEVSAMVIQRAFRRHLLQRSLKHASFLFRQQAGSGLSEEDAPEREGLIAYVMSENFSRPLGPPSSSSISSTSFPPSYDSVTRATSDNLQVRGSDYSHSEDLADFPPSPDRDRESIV
Procedure: as §1, §2, §3

T1 sequence (Q15858 whole entry): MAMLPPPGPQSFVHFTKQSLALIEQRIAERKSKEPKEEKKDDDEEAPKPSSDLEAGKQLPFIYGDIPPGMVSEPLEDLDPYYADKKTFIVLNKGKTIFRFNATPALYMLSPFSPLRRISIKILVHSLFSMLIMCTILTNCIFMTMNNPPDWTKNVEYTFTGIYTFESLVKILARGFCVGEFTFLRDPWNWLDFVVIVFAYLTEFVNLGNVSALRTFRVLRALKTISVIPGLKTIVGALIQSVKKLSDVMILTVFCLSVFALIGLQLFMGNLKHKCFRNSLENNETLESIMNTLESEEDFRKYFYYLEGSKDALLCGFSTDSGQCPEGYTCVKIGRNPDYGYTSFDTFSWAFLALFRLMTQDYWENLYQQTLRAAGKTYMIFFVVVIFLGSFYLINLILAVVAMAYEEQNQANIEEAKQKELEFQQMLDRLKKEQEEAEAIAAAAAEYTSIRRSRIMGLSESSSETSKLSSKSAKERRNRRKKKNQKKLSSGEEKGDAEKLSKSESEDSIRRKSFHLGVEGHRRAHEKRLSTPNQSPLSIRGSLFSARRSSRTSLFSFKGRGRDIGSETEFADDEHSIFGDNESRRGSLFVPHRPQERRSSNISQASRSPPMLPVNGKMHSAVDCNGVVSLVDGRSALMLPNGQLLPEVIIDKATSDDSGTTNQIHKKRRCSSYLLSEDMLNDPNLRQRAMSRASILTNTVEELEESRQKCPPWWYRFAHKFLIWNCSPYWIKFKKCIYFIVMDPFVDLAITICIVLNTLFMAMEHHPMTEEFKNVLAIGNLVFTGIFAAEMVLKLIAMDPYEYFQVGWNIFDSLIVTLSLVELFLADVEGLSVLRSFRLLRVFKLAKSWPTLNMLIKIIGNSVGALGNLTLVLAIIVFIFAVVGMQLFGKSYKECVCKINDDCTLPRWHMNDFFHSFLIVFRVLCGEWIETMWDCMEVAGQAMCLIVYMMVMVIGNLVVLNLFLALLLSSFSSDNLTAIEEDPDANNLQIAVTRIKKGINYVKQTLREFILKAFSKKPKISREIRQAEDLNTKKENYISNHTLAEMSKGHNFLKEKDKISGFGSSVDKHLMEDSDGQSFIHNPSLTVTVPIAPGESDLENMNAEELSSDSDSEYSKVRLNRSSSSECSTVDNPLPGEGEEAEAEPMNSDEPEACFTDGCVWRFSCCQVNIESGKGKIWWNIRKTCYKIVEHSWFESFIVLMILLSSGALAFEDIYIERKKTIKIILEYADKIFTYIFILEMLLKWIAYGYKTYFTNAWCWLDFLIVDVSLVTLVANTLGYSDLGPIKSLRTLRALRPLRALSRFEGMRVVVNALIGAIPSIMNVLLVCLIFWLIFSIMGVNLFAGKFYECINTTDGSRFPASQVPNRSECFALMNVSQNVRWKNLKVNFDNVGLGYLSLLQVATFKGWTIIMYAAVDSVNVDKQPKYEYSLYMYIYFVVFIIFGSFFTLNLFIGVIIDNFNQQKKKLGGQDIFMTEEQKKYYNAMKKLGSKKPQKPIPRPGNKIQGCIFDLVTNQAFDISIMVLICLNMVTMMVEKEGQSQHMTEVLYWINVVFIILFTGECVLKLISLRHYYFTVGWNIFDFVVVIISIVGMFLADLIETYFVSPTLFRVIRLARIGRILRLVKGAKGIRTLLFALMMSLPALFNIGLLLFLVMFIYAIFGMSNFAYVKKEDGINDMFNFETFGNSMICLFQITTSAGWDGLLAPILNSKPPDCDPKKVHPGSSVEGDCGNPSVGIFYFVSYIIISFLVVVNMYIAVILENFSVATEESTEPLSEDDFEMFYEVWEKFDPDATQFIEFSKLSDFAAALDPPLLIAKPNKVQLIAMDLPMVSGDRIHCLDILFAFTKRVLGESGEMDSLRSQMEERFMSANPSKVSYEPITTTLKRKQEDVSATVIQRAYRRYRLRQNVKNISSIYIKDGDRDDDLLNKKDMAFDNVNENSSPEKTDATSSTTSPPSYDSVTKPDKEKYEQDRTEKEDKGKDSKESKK

IC50 [1]	IC50 [2]	SMILES	IC50 [3]
6.11 µM	4.1 µM	COc1cc(C(F)(F)F)ccc1-c1cccc2c1C(C)CN(S(=O)(=O)Nc1ncns1)C2 (racemic) [Example 48, 5-(2-Methoxy-4-(trifluoromethyl)phenyl)-4-methyl-N-(1,2,4-thiadiazol-5-yl)-3,4-dihydroisoquinoline-2(1H)-sulfonamide]	7.26 µM
0.12 µM	0.0363 µM	Cn1nccc1-c1cc(C(F)(F)F)ccc1-c1cccc2c1CCN(S(=O)(=O)Nc1ncns1)C2 [Example 1, 5-(2-(1-Methyl-1H-pyrazol-5-yl)-4-(trifluoromethyl)phenyl)-N-(1,2,4-thiadiazol-5-yl)-3,4-dihydroisoquinoline-2(1H)-sulfonamide]	> 10 µM
0.64 µM	0.217 µM	O=S(=O)(Nc1ncns1)N1CCc2c(cccc2-c2ccc(C(F)(F)F)cc2-c2ccncc2)C1 [Example 2, 5-(2-(Pyridin-4-yl)-4-(trifluoromethyl)phenyl)-N-(1,2,4-thiadiazol-5-yl)-3,4-dihydroisoquinoline-2(1H)-sulfonamide]	> 10 µM
2.01 µM	0.414 µM	Cn1nccc1-c1cc(C(F)(F)F)ccc1-c1cccc2c1CCN(S(=O)(=O)Nc1nccs1)C2 [Example 3, 5-(2-(1-methyl-1H-pyrazol-5-yl)-4-(trifluoromethyl)phenyl)-N-(thiazol-2-yl)-3,4-dihydroisoquinoline-2(1H)-sulfonamide]	> 10 µM
0.56 µM	0.527 µM	O=S(=O)(Nc1ncns1)N1CCc2c(cccc2-c2ccc(C(F)(F)F)cc2Br)C1 [Example 4, 5-(2-Bromo-4-(trifluoromethyl)phenyl)-N-(1,2,4-thiadiazol-5-yl)-3,4-dihydroisoquinoline-2(1H)-sulfonamide]	> 10 µM
5.8 µM	1.64 µM	O=S(=O)(Nc1ncns1)N1CCc2c(cccc2-c2ccc(C(F)(F)F)cc2)C1 [Example 7, N-(1,2,4-Thiadiazol-5-yl)-5-(4-(trifluoromethyl)phenyl)-3,4-dihydroisoquinoline-2(1H)-sulfonamide]	> 10 µM
3.13 µM	1.84 µM	O=S(=O)(Nc1ncns1)N1CCc2c(cccc2-c2ccc(C(F)(F)F)cc2F)C1 [Example 8, 5-(2-Fluoro-4-(trifluoromethyl)phenyl)-N-(1,2,4-thiadiazol-5-yl)-3,4-dihydroisoquinoline-2(1H)-sulfonamide]	> 10 µM
0.61 µM	0.477 µM	O=S(=O)(Nc1ncns1)N1CCc2c(cccc2-c2ccc(C(F)(F)F)cc2Cl)C1 [Example 9, 5-(2-Chloro-4-(trifluoromethyl)phenyl)-N-(1,2,4-thiadiazol-5-yl)-3,4-dihydroisoquinoline-2(1H)-sulfonamide]	> 10 µM
7.46 µM	5.47 µM	O=S(=O)(Nc1ncns1)N1CCc2c(cccc2-c2ccc(Cl)cc2)C1 [Example 10]	> 10 µM
1.33 µM	2.41 µM	O=S(=O)(Nc1ncns1)N1CCc2c(cccc2-c2ccc(Cl)cc2Cl)C1 [Example 12, 5-(2,4-Dichlorophenyl)-N-(1,2,4-thiadiazol-5-yl)-3,4-dihydroisoquinoline-2(1H)-sulfonamide]	> 10 µM
> 30 µM	3.87 µM	O=S(=O)(Nc1ncns1)N1CCc2c(cccc2-c2cccc3c2CCNC3)C1 [Example 13, N-(1,2,4-Thiadiazol-5-yl)-1′,2′,3,3′,4,4′-hexahydro-[5,5′-biisoquinoline]-2(1H)-sulfonamide hydrochloride]	> 10 µM
0.09 µM	0.0783 µM	CN1CC=C(c2cc(C(F)(F)F)ccc2-c2cccc3c2CCN(S(=O)(=O)Nc2ncns2)C3)CC1 [Example 15, 5-(2-(1-Methyl-1,2,3,6-tetrahydropyridin-4-yl)-4-(trifluoromethyl)phenyl)-N-(1,2,4-thiadiazol-5-yl)-3,4-dihydroisoquinoline-2(1H)-sulfonamide]	> 10 µM
5.42 µM	2.66 µM	Cn1cc(-c2cc(C(F)(F)F)ccc2-c2cccc3c2CCN(S(=O)(=O)Nc2ncns2)C3)cn1 [Example 16, 5-(2-(1-Methyl-1H-pyrazol-4-yl)-4-(trifluoromethyl)phenyl)-N-(1,2,4-thiadiazol-5-yl)-3,4-dihydroisoquinoline-2(1H)-sulfonamide]	> 10 µM
0.35 µM	0.157 µM	O=S(=O)(Nc1ncns1)N1CCc2c(cccc2-c2ccc(C(F)(F)F)cc2-c2cn[nH]c2)C1 [Example 17, 5-(2-(1H-Pyrazol-4-yl)-4-(trifluoromethyl)phenyl)-N-(1,2,4-thiadiazol-5-yl)-3,4-dihydroisoquinoline-2(1H)-sulfonamide]	> 10 µM
0.07 µM	0.0453 µM	Nc1cc(-c2cc(C(F)(F)F)ccc2-c2cccc3c2CCN(S(=O)(=O)Nc2ncns2)C3)ccn1 [Example 18, 5-(2-(2-Aminopyridin-4-yl)-4-(trifluoromethyl)phenyl)-N-(1,2,4-thiadiazol-5-yl)-3,4-dihydroisoquinoline-2(1H)-sulfonamide]	> 10 µM
	5.83 µM	COc1cncc(-c2cc(C(F)(F)F)ccc2-c2cccc3c2CCN(S(=O)(=O)Nc2ncns2)C3)c1 [Example 20, 5-(2-(5-Methoxypyridin-3-yl)-4-(trifluoromethyl)phenyl)-N-(1,2,4-thiadiazol-5-yl)-3,4-dihydroisoquinoline-2(1H)-sulfonamide]	> 10 µM
	1.8 µM	Cc1cncc(-c2cc(C(F)(F)F)ccc2-c2cccc3c2CCN(S(=O)(=O)Nc2ncns2)C3)c1 [Example 21, 5-(2-(5-Methylpyridin-3-yl)-4-(trifluoromethyl)phenyl)-N-(1,2,4-thiadiazol-5-yl)-3,4-dihydroisoquinoline-2(1H)-sulfonamide]	4.08 µM
	6.9 µM	O=S(=O)(Nc1ncns1)N1CCc2c(cccc2-c2cncc3ccccc23)C1 [Example 25, N-(1,2,4-Thiadiazol-5-yl)-3′,4′-dihydro-[4,5′-biisoquinoline]-2′(1′H)-sulfonamide]	> 10 µM
	7.6 µM	COc1ncccc1-c1cccc2c1CCN(S(=O)(=O)Nc1ncns1)C2 [Example 50, 5-(2-Methoxypyridin-3-yl)-N-(1,2,4-thiadiazol-5-yl)-3,4-dihydroisoquinoline-2(1H)-sulfonamide]	> 10 µM
	19.1 µM	O=S(=O)(Nc1ncns1)N1CCc2c(cccc2-c2cccc3[nH]ncc23)C1 [Example 51, 5-(1H-Indazol-4-yl)-N-(1,2,4-thiadiazol-5-yl)-3,4-dihydroisoquinoline-2(1H)-sulfonamide]	> 10 µM
	14.9 µM	CN1CC=C(c2cc(Cl)cc(F)c2-c2cccc3c2CCN(S(=O)(=O)Nc2ncc(F)s2)C3)CC1 [Example 54, 5-(4-Chloro-2-fluoro-6-(1-methyl-1,2,3,6-tetrahydropyridin-4-yl)phenyl)-N-(5-fluorothiazol-2-yl)-3,4-dihydroisoquinoline-2(1H)-sulfonamide]	> 10 µM
	9.44 µM	COc1cc(C(F)(F)F)ccc1-c1cccc2c1CN(S(=O)(=O)Nc1ncns1)CC2 [Example 55, 8-(2-Methoxy-4-(trifluoromethyl)phenyl)-N-(1,2,4-thiadiazol-5-yl)-3,4-dihydroisoquinoline-2(1H)-sulfonamide]	> 10 µM
	7.1 µM	CC(C)(C)OC(=O)N1CC=C(c2cccc3c2CCN(S(=O)(=O)Nc2ncns2)C3)CC1 [Example 57, tert-Butyl 4-(2-(N-(1,2,4-thiadiazol-5-yl)sulfamoyl)-1,2,3,4-tetrahydroisoquinolin-5-yl)-5,6-dihydropyridine-1(2H)-carboxylate]	> 10 µM
0.81 µM		COc1cc(C(F)(F)F)ccc1-c1ncnc2c1CCN(S(=O)(=O)Nc1ncc(F)s1)C2 [Example 60, N-(5-fluorothiazol-2-yl)-4-(2-methoxy-4-(trifluoromethyl)phenyl)-5,6-dihydropyrido[3,4-d]pyrimidine-7(8H)-sulfonamide]	
8.05 µM		COc1cc(-c2ccc(F)c(F)c2)ccc1-c1cccc2c1CCN(S(=O)(=O)Nc1nncs1)C2 [Example 62, 5-(3′,4′-difluoro-3-methoxy-[1,1′-biphenyl]-4-yl)-N-(1,3,4-thiadiazol-2-yl)-3,4-dihydroisoquinoline-2(1H)-sulfonamide]	
11.2 µM		COc1ccc(-c2ccc(F)c(F)c2)cc1-c1cccc2c1CCN(S(=O)(=O)Nc1nncs1)C2 [Example 63, 5-(3′,4′-difluoro-4-methoxy-[1,1′-biphenyl]-3-yl)-N-(1,3,4-thiadiazol-2-yl)-3,4-dihydroisoquinoline-2(1H)-sulfonamide]	
6.19 µM		COc1cc(C(F)(F)F)ccc1-c1ccnc2c1CCN(S(=O)(=O)Nc1ccncn1)C2 [Example 64, 4-(2-methoxy-4-(trifluoromethyl)phenyl)-N-4-pyrimidinyl-5,8-dihydro-1,7-naphthyridine-7(6H)-sulfonamide]	

SMILES	IC50 [1]	IC50 [2]	IC50 [3]
C[N+]1(C)CC=C(c2cc(C(F)(F)F)ccc2-c2cccc3c2CCN(S(=O)(=O)Nc2ncns2)C3)CC1 [Example 14, 4-(2-(2-(N-(1,2,4-Thiadiazol-5-yl)sulfamoyl)-1,2,3,4-tetrahydroisoquinolin-5-yl)-5-(trifluoromethyl)phenyl)-1,1-dimethyl-1,2,3,6-tetrahydropyridin-1-ium hydroxide]	3.53 µM	0.684 µM	> 10 µM
